Literature values, collected in US20210236604A1, “THERAPEUTIC TREATMENT FOR NEUROTROPHIC KERATOPATHY” (priority 2017, published 2021).

Legend:
[1] = tested on: corneal epithelium wound healing; conditions: with substance-P; Nishida 2009; cited from earlier work
decubitus ulcers = conditions: Van Ort 1976; cited from earlier work
[2] = tested on: experimentally-induced superficial skin wounds; conditions: diabetic and non-diabetic individuals; Greenway 1999; cited from earlier work
corneal abrasions = conditions: diabetic rats, cited from earlier work
corneal ulcers = conditions: systemic administration; Aynsley 1945; cited from earlier work
[3] = tested on: sub-basal plexus corneal nerves; conditions: diabetic mice; Chen 2013; cited from earlier work

Substance	corneal epithelium wound healing [1]	healing of decubitus ulcers (decubitus ulcers)	healing of experimentally-induced superficial skin wounds [2]	wound healing after corneal abrasions (corneal abrasions; Zagon 2007, Klocek 2009)	corneal sensation (corneal abrasions; Zagon 2007)	healing of corneal ulcers (corneal ulcers)	loss of sub-basal plexus corneal nerves [3]
Insulin-like growth factor-1 [IGF-1]	act synergistically with substance-P to promote corneal epithelium wound healing	–	–	–	–	–	–
insulin [topical insulin]	–	improve healing	improve healing	improves wound healing	improves corneal sensation	improved healing of corneal ulcers	slow the loss
